Assay results from patent US20140343017A1, “PYRROLE COMPOUND” (Kabushiki Kaisha Yakult Honsha, priority 2012, published 2014).

Tests used:
Experiment in all cases: Inhibitory effect on growth of human cancer cells (in vitro), WST-8
Assay type in all cases: cell-based
[1] = system: human non-small cell lung cancer A549 cells; details: Homo sapiens, A549, 96 h, 96 hours culture
Method: (§1) Each pyrrole compound of the present invention was studied for its effects on the growth of human non-small cell lung cancer A549 cells and human colorectal cancer HT-29 cells and HCT116 cells. The cells of each line were suspended in an RPMI1640 medium supplemented with 10% fetal bovine serum and inoculated at a cell density of 1000 cells/50 μL/well to a 96-well plate. After overnight culture, each compound diluted with a medium was added thereto at a concentration of 50 μL/well, and the cells were further cultured for 96 hours. After the completion of culture, WST-8 (Seikagaku Corp.) was added thereto at a concentration of 10 μL/well, and the cells were cultured at 37° C. for approximately 1 hour under 5% CO2 conditions, followed by measurement of absorbance at 450 nm.

[2] = system: human colorectal cancer HCT116 cells; details: Homo sapiens, HCT-116, 96 h, 96 hours culture
Method: as §1

[3] = system: human colorectal cancer HT-29 cells; details: Homo sapiens, HT-29, 96 h, 96 hours culture, read-out: IC50 (nM) HT29
Method: as §1

Row | Structure (SMILES) | IC50 [1] | IC50 [2] | IC50 [3]
1 | CCc1nnc(-c2c(C)c(C(=O)c3cccc(Br)c3)c(C)n2C)o1 [Compound 223, (3-bromophenyl) (5-(5-ethyl-1,3,4-oxadiazol-2-yl)-1,2,4-trimethyl-1H-pyrrol-3-yl)methanone] | 231 nM | 46.9 nM | 28.1 nM
2 | CCc1nnc(-c2c(C)c(C(=O)c3cccc(Br)c3)c(C)n2S(=O)(=O)C2CC2)o1 [Compound 227, (3-bromophenyl) (1-(cyclopropylsulfonyl)-5-(5-ethyl-1,3,4-oxadiazol-2-yl)-2,4-dimethyl-1H-pyrrol-3-yl)methanone] | 555 nM | 447 nM | 290 nM
3 | CCc1nnc(-c2c(C)c(C(=O)c3cccc(Br)c3)c(C)n2CCOC(C)=O)o1 [Compound 235, 2-(3-(3-bromobenzoyl)-2,4-dimethyl-5-(5-ethyl-1,3,4-oxadiazol-2-yl)-1H-pyrrol-1-yl)ethyl acetate] | 738 nM | 239 nM | 172 nM
4 | CCc1nnc(-c2c(C)c(C(=O)c3cccc(Br)c3)c(C)n2CCO)o1 [Compound 236, (3-bromophenyl) (1-(2-hydroxyethyl)-2,4-dimethyl-5-(5-ethyl-1,3,4-oxadiazol-2-yl)-1H-pyrrol-3-yl)methanone] | 469 nM | 231 nM | 168 nM
5 | CCc1nnc(-c2[nH]c(C)c(C(=O)c3ccc(OCCN)c(Br)c3)c2C)o1 [Compound 251, (4-(2-aminoethoxy)-3-bromophenyl)(5-(5-ethyl-1,3,4-oxadiazol-2-yl)-2,4-dimethyl-1H-pyrrol-3-yl)methanone] | 191 nM | 55.3 nM | 102 nM
6 | Cc1[nH]c(-c2nnc(C3CC3)o2)c(C)c1C(=O)c1cccc(OCCN)c1 [Compound 253, (3-(2-aminoethoxy)phenyl)(5-(5-cyclopropyl-1,3,4-oxadiazol-2-yl)-2,4-dimethyl-1H-pyrrol-3-yl)methanone] | 351 nM | 45.2 nM | 146 nM
7 | Cc1[nH]c(-c2nnc(C3CC3)o2)c(C)c1C(=O)c1ccc(O)c(Br)c1 [Compound 254, (3-bromo-4-hydroxyphenyl)(5-(5-cyclopropyl-1,3,4-oxadiazol-2-yl)-2,4-dimethyl-1H-pyrrol-3-yl)methanone] | 55.1 nM | 44.5 nM | 33.2 nM
8 | Cc1[nH]c(-c2nnc(C3CC3)o2)c(C)c1C(=O)c1ccc(OCCN)c(Br)c1 [Compound 256, (4-(2-aminoethoxy)-3-bromophenyl)(5-(5-cyclopropyl-1,3,4-oxadiazol-2-yl)-2,4-dimethyl-1H-pyrrol-3-yl)methanone] | 95.9 nM | 43.2 nM | 36.2 nM
9 | Cc1[nH]c(-c2nnc(C3CC3)o2)c(C)c1C(=O)c1ccc(OCCN(C)C)c(Br)c1 [Compound 257, (3-bromo-4-(2-(dimethylamino)ethoxy)phenyl) (5-(5-cyclopropyl-1,3,4-oxadiazol-2-yl)-2,4-dimethyl-1H-pyrrol-3-yl)methanone] | 865 nM | 865 nM | 384 nM
10 | COc1ccc(Br)cc1C(=O)c1c(C=O)[nH]c(-c2nnc(C3CC3)o2)c1C [Compound 258, 3-(5-bromo-2-methoxybenzoyl)-5-(5-cyclopropyl-1,3,4-oxadiazol-2-yl)-4-methyl-1H-pyrrole-2-carboaldehyde] | 50.5 nM | 45.4 nM | 30.9 nM
11 | COc1ccc(Br)cc1C(=O)c1c(CO)[nH]c(-c2nnc(C3CC3)o2)c1C [Compound 259, (5-bromo-2-methoxyphenyl)(5-(5-cyclopropyl-1,3,4-oxadiazol-2-yl)-2-(hydroxymethyl)-4-methyl-1H-pyrrol-3-yl)methanone] | 69.5 nM | 39.2 nM | 37.2 nM
12 | Cc1c(-c2nnc(C3CC3)o2)[nH]c(C=O)c1C(=O)c1cccc(Br)c1 [Compound 261, 3-(3-bromobenzoyl)-5-(5-cyclopropyl-1,3,4-oxadiazol-2-yl)-4-methyl-1H-pyrrole-2-carboaldehyde] | 12.9 nM | 88.9 nM | 9.4 nM
13 | COc1ccc(C(=O)c2c(C3SCCCS3)[nH]c(-c3nnc(C4CC4)o3)c2C)cc1Br [Compound 262, (3-bromo-4-methoxyphenyl)(5-(5-cyclopropyl-1,3,4-oxadiazol-2-yl)-2-(1,3-dithian-2-yl)-4-methyl-1H-pyrrol-3-yl)methanone] | 905 nM | 902 nM | 845 nM
14 | Cc1c(-c2nnc(C3CC3)o2)[nH]c(C(F)F)c1C(=O)c1cccc(Br)c1 [Compound 265, (3-bromophenyl)(5-(5-cyclopropyl-1,3,4-oxadiazol-2-yl)-2-(difluoromethyl)-4-methyl-1H-pyrrol-3-yl)methanone] | 46 nM | 158 nM | 37.1 nM
15 | COc1ccc(C(=O)c2c(CN3CCCCC3)[nH]c(-c3nnc(C4CC4)o3)c2C)cc1Br [Compound 270, (3-bromo-4-methoxyphenyl)(5-(5-cyclopropyl-1,3,4-oxadiazol-2-yl)-4-methyl-2-(piperidin-1-ylmethyl)-1H-pyrrol-3-yl)methanone] | 859 nM | 819 nM | 725 nM

The next compounds have a lower IC50 [1] than those just listed; values first:

Row | IC50 [1] | IC50 [2] | IC50 [3] | Structure (SMILES)
16 | 1.8 nM | 1.7 nM | 1.3 nM | CCc1nnc(-c2c(C)c(C(=O)c3cccc(Br)c3)c(C)n2C(C)=O)o1 [Compound 224, 1-(3-(3-bromobenzoyl)-5-(5-ethyl-1,3,4-oxadiazol-2-yl)-2,4-dimethyl-1H-pyrrol-1-yl)ethanone]
17 | 9.7 nM | 9.2 nM | 6.6 nM | CCc1nnc(-c2c(C)c(C(=O)c3cccc(Br)c3)c(C)n2S(C)(=O)=O)o1 [Compound 225, (3-bromophenyl)(5-(5-ethyl-1,3,4-oxadiazol-2-yl)-2,4-dimethyl-1-(methylsulfonyl)-1H-pyrrol-3-yl)methanone]
18 | 0.7 nM | 0.4 nM | 0.3 nM | CCc1nnc(-c2c(C)c(C(=O)c3cccc(Br)c3)c(C)n2C(=O)COC(C)=O)o1 [Compound 226, 2-(3-(3-bromobenzoyl)-5-(5-ethyl-1,3,4-oxadiazol-2-yl)-2,4-dimethyl-1H-pyrrol-1-yl)-2-oxoethyl acetate]
19 | 1.9 nM | 0.6 nM | 0.3 nM | CCc1nnc(-c2c(C)c(C(=O)c3cccc(Br)c3)c(C)n2C(=O)c2ccccc2)o1 [Compound 237, (1-benzoyl-5-(5-ethyl-1,3,4-oxadiazol-2-yl)-2,4-dimethyl-1H-pyrrol-3-yl) (3-bromophenyl)methanone]
20 | 2.1 nM | 1.4 nM | 2.6 nM | Cc1[nH]c(-c2nnc(C3CC3)o2)c(C)c1C(=O)c1cc(Br)ccc1O [Compound 241, (5-bromo-2-hydroxyphenyl)(5-(5-cyclopropyl-1,3,4-oxadiazol-2-yl)-2,4-dimethyl-1H-pyrrol-3-yl)methanone]
21 | 0.4 nM | 0.3 nM | 0.3 nM | C=Cc1[nH]c(-c2nnc(C3CC3)o2)c(C)c1C(=O)c1cccc(Br)c1 [Compound 260, (3-bromophenyl) (5-(5-cyclopropyl-1,3,4-oxadiazol-2-yl)-4-methyl-2-vinyl-1H-pyrrol-3-yl)methanone]
22 | 8.2 nM | 1.8 nM | 1.8 nM | Cc1c(-c2nnc(C3CC3)o2)[nH]c(CO)c1C(=O)c1cccc(Br)c1 [Compound 264, (3-bromophenyl)(5-(5-cyclopropyl-1,3,4-oxadiazol-2-yl)-2-(hydroxymethyl)-4-methyl-1H-pyrrol-3-yl)methanone]
